From ChEMBL document CHEMBL5550169, “A consensus reverse docking approach for identification of a competitive inhibitor of acetyltransferase enhanced intracellular survival protein from Mycobacterium tuberculosis” (Bioorg Med Chem, 2024)
Converted amounts (≈) assume the structure as drawn.

Experiments:
[1] = test system: Mycobacterium tuberculosis; assay: Antibacterial activity against Mycobacterium tuberculosis H37Ra measured after 7 days by resazurin reduction microplate assay; assay type: functional; conditions: 168 h, time 7 day
[2] = biological target: T1, N-acetyltransferase Eis (Mycobacterium tuberculosis (strain ATCC 25618 / H37Rv), UniProt P9WFK7); assay: Inhibition of Mycobacterium tuberculosis H37Rv Eis protein using kanamycin as substrate preincubated for 10 mins followed by AcCoA addition and measured every 30 secs for 20 mins
T1 sequence (P9WFK7 whole entry): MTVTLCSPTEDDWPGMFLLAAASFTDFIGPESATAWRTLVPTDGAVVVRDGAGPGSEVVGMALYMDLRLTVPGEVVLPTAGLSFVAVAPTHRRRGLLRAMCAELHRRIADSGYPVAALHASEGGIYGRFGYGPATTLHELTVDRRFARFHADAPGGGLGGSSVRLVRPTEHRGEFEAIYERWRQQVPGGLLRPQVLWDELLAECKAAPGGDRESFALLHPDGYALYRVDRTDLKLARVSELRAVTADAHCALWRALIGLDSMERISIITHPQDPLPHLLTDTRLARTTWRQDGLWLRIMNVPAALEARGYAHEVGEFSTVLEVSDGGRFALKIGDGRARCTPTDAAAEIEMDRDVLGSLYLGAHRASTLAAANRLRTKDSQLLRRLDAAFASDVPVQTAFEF

[3] = Tmax in female BALB/c mouse lungs at 100 mg/kg, po administered as single dose via oral gavage and measured upto 24 hrs by LC-MS analysis; assay type: ADME, organism-based; conditions: lung
[4] = Tmax in female BALB/c mouse plasma at 100 mg/kg, po administered as single dose via oral gavage and measured upto 24 hrs by LC-MS analysis; assay type: ADME, organism-based
[5] = Cmax in female BALB/c mouse plasma at 100 mg/kg, po administered as single dose via oral gavage and measured upto 24 hrs by LC-MS analysis; assay type: ADME, organism-based
[6] = test system: Mycobacterium tuberculosis; assay: Antibacterial activity against Mycobacterium tuberculosis IAR2 assessed as reduction in pellet formation measured after 7 to 14 days by alamar blue assay; assay type: functional; conditions: time 7-14 day
[7] = Cmax in female BALB/c mouse lungs at 100 mg/kg, po administered as single dose via oral gavage and measured upto 24 hrs by LC-MS analysis; assay type: ADME, organism-based; conditions: lung
[8] = test system: Mycobacterium tuberculosis; assay: Antibacterial activity against Mycobacterium tuberculosis H37Rv assessed as reduction in pellet formation measured after 7 to 14 days by alamar blue assay; assay type: functional; conditions: time 7-14 day

Row | Structure (SMILES) | MIC [1] | also measured
1 | C=CCn1c(SCC(=O)c2ccc(Cl)cc2)nc2sc3c(c2c1=O)CCCC3 | > 200 µM | 
2 | C=CCn1c(SCC(=O)c2ccc(C)cc2)nc2sc3c(c2c1=O)CCCC3 | > 200 µM | 
3 | CC[C@@H](CO)NCCN[C@@H](CC)CO [ETHAMBUTOL] | 8 µM (≈ 1.63 µg/mL) | 
4 | O=C(CSc1nc2ccccc2c(=O)n1-c1ccccc1)c1ccccc1 | 200 µM (≈ 74.5 µg/mL) | 
5 | CCOC(=O)/C(C#N)=C/c1c[nH]c2ccccc12 | > 200 µM | 
6 | O=C(CSc1nc2sc3c(c2c(=O)n1-c1ccccc1)CCCC3)c1ccc(Cl)cc1 | > 200 µM | 
7 | CN1CCCC(CSc2nc(N)c3c4c(sc3n2)CCCC4)C1 (configuration not stated) |  | IC50 [2]: 150 nM
8 | Cc1ccc(C(=O)CSc2nc3sc4c(c3c(=O)n2Cc2ccccc2)CCCC4)cc1 | > 200 µM | 
9 | CC(C)OC(=O)/C(C#N)=C/c1c[nH]c2ccccc12 | 100 µM (≈ 25.4 µg/mL) | 
10 | N#C/C(=C\c1c[nH]c2ccccc12)C(=O)NCCN1CCCCC1 | 200 µM (≈ 64.5 µg/mL) | 
11 | N#C/C(=C\c1c[nH]c2ccccc12)C(=O)N1CCOCC1 | > 200 µM | 
12 | C=CCn1c(SCC(=O)c2ccc(Cl)cc2)nc2ccccc2c1=N | > 200 µM | 
13 | C=CCn1c(SCC(=O)c2ccccc2)nc2sc3c(c2c1=O)CCCC3 | > 200 µM | 
14 | CO[C@H]1/C=C/O[C@@]2(C)Oc3c(C)c(O)c4c(O)c(c(/C=N/N5CCN(C)CC5)c(O)c4c3C2=O)NC(=O)/C(C)=C\C=C\[C@H](C)[C@H](O)[C@@H](C)[C@@H](O)[C@@H](C)[C@H](OC(C)=O)[C@@H]1C [RIFAMPIN] | 0.01 µM (≈ 0.00823 µg/mL) | 
15 | O=C(CSc1nc2sc3c(c2c(=O)n1Cc1ccccc1)CCCC3)c1ccccc1 | > 200 µM | 
16 | N#C/C(=C\c1c[nH]c2ccccc12)C(=O)N1CCSCC1 | > 200 µM | 
17 | N=c1c2ccccc2nc(SCC(=O)c2ccc(Cl)cc2)n1-c1ccccc1 | > 200 µM | 
18 | O=C(CSc1nc2sc3c(c2c(=O)n1Cc1ccccc1)CCCC3)c1cccc(O)c1 | 200 µM (≈ 92.5 µg/mL) | 
19 | N#C/C(=C\c1c[nH]c2ccccc12)C(=O)NCCc1ccccc1 | > 200 µM | 
20 | Cc1cc(C)c2c(C(=O)NC3CCCCCCC3)c[nH]c2c1 |  | Tmax [3]: 4 h; Tmax [4]: 2 h; Cmax [5]: 490 ng/mL; MIC [6]: ≥ 250 ng/mL; Cmax [7]: 2470 ng/mL; MIC [8]: 4 ng/mL (≈ 0.0134 µM)
21 | NNC(=O)c1ccncc1 [ISONIAZID] | 0.23 µM (≈ 0.0315 µg/mL) | 
22 | Cc1ccc(C(=O)CSc2nc3sc4c(c3c(=O)n2-c2ccccc2)CCCC4)cc1 | > 200 µM | 
